Data published in the supplement of paper PMC10307832.

Assays:
Assay in all cases: relative viability (nuclei count vs DMSO), 5 days (fraction); higher = more cells survive
[1] = compound: C[C@@H](N)c1ccc(C(=O)Nc2ccnc3[nH]ccc23)cc1 + N=C(N)NC(=N)NCCc1ccccc1 [Phenformin] (partner 250 µM)
Summary of the method: (§1)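 Cells from lung cancer lines were seeded into 1536-well plates and, one day later, dosed by pin tool. Treatments were either a single drug or a fixed dose of an anchor drug with five library-drug doses (not always all listed) in √10 steps. After 5 days, nuclei were stained in a one-step fixation (final 0.05% Triton X-100, 1% formaldehyde, 1 ug/ml Hoechst) and counted on 4× images, and relative viability is the treated-to-vehicle nuclei ratio, as the median of duplicate plates.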

Tanzisertib + Phenformin = compound: O[C@H]1CC[C@H](Nc2ncc3nc(Nc4c(F)cc(F)cc4F)n([C@H]4CCOC4)c3n2)CC1 [Tanzisertib] + N=C(N)NC(=N)NCCc1ccccc1 [Phenformin] (partner 250 µM)
Summary of the method: as §1

[2] = compound: C[C@@H](N)c1ccc(C(=O)Nc2ccnc3[nH]ccc23)cc1 + O=C(c1cc(Cc2n[nH]c(=O)c3ccccc23)ccc1F)N1CCN(C(=O)C2CC2)CC1 [Olaparib] (partner 8 µM)
Summary of the method: as §1

[3] = compound: C1CNCCC1C2=CC(=NN2)C3=CC=NC=C3 + CC(=O)c1c(C)c2cnc(Nc3ccc(N4CCNCC4)cn3)nc2n(C2CCCC2)c1=O [Palbociclib] (partner 0.5 µM)
Summary of the method: as §1

Cell Line	relative viability ([1]; first compound 0.04 µM)	relative viability ([1]; first compound 0.1265 µM)	relative viability ([1]; first compound 0.4 µM)	relative viability ([1]; first compound 1.265 µM)	relative viability ([1]; first compound 4 µM)	relative viability (Tanzisertib + Phenformin; first compound 0.08 µM)	relative viability (Tanzisertib + Phenformin; first compound 0.253 µM)	relative viability (Tanzisertib + Phenformin; first compound 0.8 µM)	relative viability (Tanzisertib + Phenformin; first compound 2.53 µM)	relative viability (Tanzisertib + Phenformin; first compound 8 µM)	relative viability ([2]; first compound 0.04 µM)	relative viability ([2]; first compound 0.1265 µM)	relative viability ([2]; first compound 0.4 µM)	relative viability ([2]; first compound 1.265 µM)	relative viability ([2]; first compound 4 µM)	relative viability ([3]; first compound 0.08 µM)	relative viability ([3]; first compound 0.8 µM)	relative viability ([3]; first compound 2.53 µM)	relative viability ([3]; first compound 8 µM)
NCI-H2170	0.401	0.442	0.492	0.353	0.38	0.406	0.451	0.457	0.411	0.392	0.618	0.584	0.614	0.746	0.543	0.36	0.454	0.407	0.4
HCC-366	0.583	0.66	0.617		0.57	0.671	0.599	0.651	0.681	0.646	0.345	0.368	0.371	0.447	0.389	0.336	0.409	0.398	0.385
NCI-H2347	0.502	0.532	0.546		0.584	0.445		0.434	0.306	0.376	0.53	0.579	0.534	0.566	0.461	0.385	0.453	0.44	0.431
COR-L 105	0.446	0.492	0.523	0.423	0.377	0.467	0.465	0.449	0.473	0.327	0.605	0.636	0.763	0.717	0.564	0.394	0.405	0.421	0.472
201T	0.427	0.442	0.462	0.428	0.473	0.454	0.501	0.477	0.459	0.386	0.867	0.883	0.818	0.895	0.949	0.376	0.353	0.355	0.362
NCI-H2126	0.588	0.558	0.592	0.505	0.502	0.566	0.548	0.545	0.534	0.516	0.945	0.946	0.915	0.988	0.948	0.364	0.368	0.322	0.354
LC-2-ad	0.549	0.599	0.609		0.558	0.648	0.58	0.638	0.651	0.433	0.744	0.693	0.646	0.647	0.478	0.532	0.548	0.462	0.437
NCI-H2085	0.628	0.77	0.778	0.359	0.636	0.739	0.724	0.81	0.715	0.461	0.762	0.726	0.667	0.706	0.619	0.519		0.481	0.485
NCI-H358	0.374	0.358	0.314	0.32	0.246	0.361	0.318	0.322	0.271	0.212	0.625	0.628	0.69	0.696	0.479	0.14	0.126	0.143	0.136
